Laboratory results: US11819503B2 (priority 2019, dated 2023)
In brackets after ≈: the same amount, converted by molar mass. Several values for one entry are separate records, joined by “and”; a condition that tells them apart may be missing. Equal values may be shown once. Entries after “also recorded” stand apart in the source; their conditions may differ.

Assays:
C. immitis [1] = tested on: C. immitis; design: species or system ICR mice; details: mouse, in vivo
C. immitis [2] = tested on: C. immitis; design: species or system ICR mice; details: mouse, in vivo; remark: listed apart in the source
[3] = tested on: C. immitis (isolate UTHSCSA DI17-143); assay: microbe, parasite or virus in culture; type: cell-based; details: Coccidioides immitis
C. immitis [4] = tested on: C. immitis; design: species or system ICR mice; details: mouse, in vivo; remark: listed apart in the source
[5] = biological target: recombinant human enzyme (dihydroorotate dehydrogenase) (Homo sapiens, UniProt Q02127); details: cited from earlier work
recombinant human enzyme (dihydroorotate dehydrogenase), sequence (Q02127 whole entry): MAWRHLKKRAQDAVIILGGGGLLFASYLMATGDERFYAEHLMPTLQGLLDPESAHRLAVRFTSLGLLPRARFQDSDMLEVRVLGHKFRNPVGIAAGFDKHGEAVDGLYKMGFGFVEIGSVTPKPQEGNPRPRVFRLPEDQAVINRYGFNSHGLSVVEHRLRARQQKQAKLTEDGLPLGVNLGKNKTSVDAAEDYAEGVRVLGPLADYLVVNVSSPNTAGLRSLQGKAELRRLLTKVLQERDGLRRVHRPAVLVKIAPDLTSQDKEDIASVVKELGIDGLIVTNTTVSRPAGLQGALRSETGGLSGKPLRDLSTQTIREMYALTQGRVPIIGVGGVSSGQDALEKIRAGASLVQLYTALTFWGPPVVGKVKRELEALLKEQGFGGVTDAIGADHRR

coccidioidomycosis = details: human, in vivo
[6] = tested on: All Coccidioides isolates (n = 59); assay: microbe, parasite or virus in culture; type: cell-based, Coccidioides species; details: for MIC: read-out: GM MIC
[7] = mouse, in vivo, po
[8] = tested on: dihydroorotate dehydrogenase in yeast, including Candida and Cryptococcus species; details: cited from earlier work
[9] = tested on: Coccidioides immitis (n = 21); assay: microbe, parasite or virus in culture; type: cell-based; details: for MIC50 / MIC90 / MIC: Coccidioides immitis; for MIC: read-out: GM MIC
[10] = tested on: Coccidioides posadasii (n = 24); assay: microbe, parasite or virus in culture; type: cell-based; details: for MIC50 / MIC90 / MIC: Coccidioides posadasii; for MIC: read-out: GM MIC
in vivo = details: mouse; for AUC(0-t): AUC 0-12

In the case of OC(Cn1cncn1)(Cn1cncn1)c1ccc(F)cc1F [fluconazole, reference compound], the “brain fungal burden (mean of combined results)” value (C. immitis [1]) is reported as 1.33 log 10 CFU/g, the median survival time (C. immitis [2]) is reported as 30 days and 28 days and the MIC [3] is reported as 16 µg/mL (≈ 52.2 µM). The “rebound in fungal burdens once therapy was stopped” value (C. immitis [4]) was “rebound in fungal burdens”.

In the case of Cc1cc(-c2ccccc2)c(C(=O)C(=O)Nc2ccc(N3CCN(c4ncc(F)cn4)CC3)cc2)n1C [olorofim, 2-(1,5-dimethyl-3-phenyl-1H-pyrrol-2-yl)-N-(4-(4-(5-fluoropyrimidin-2-yl)piperazin-1-yl)phenyl)-2-oxoacetamide], the “brain fungal burden (mean CFU count)” value (C. immitis [1]) is listed as 4.36 log 10 CFU/g and 3.41 log 10 CFU/g, the “fungal burdens, three times daily compared to twice daily administration” value (C. immitis [1]) is listed as “further reductions in fungal burdens” and the “inhibition of dihydroorotate dehydrogenase” value [5] is listed as “little to no inhibition”. The “day on which mice began to succumb to infection” value (C. immitis [2]) was 18 days, the median survival time (C. immitis [2]) was 22 days and 26 days and 23.5 days and > 30 days and the “percentage of mice that survived to the study endpoint” value (C. immitis [2]) was 80%. For the same molecule, the “clinical status at 3 months” value (coccidioidomycosis) was “no longer required the use of oxygen and was able to walk unaided”, the “clinical status at 6 months” value (coccidioidomycosis) was “continues to be asymptomatic 6 months after initiation of olorofim therapy” and the symptomatic response (coccidioidomycosis) was “symptomatic improvements within a few weeks; also recorded: symptomatic improvement within three weeks”. For the same molecule, the “time to symptomatic improvement” value (coccidioidomycosis) was no more than 4 weeks, the MIC50 [6] was no more than 0.008 µg/mL and the MIC90 [6] was 0.015 µg/mL (≈ 0.0301 µM). The MIC [6] was 0.011 µg/mL (≈ 0.0221 µM), the “Levels in brain compared with plasma” value [7] was “slightly lower than those in plasma” and the “Levels in lung compared with plasma” value [7] was “slightly higher”. The “exposure in females compared with males” value [7] was “slightly higher in females”, the “inhibition of dihydroorotate dehydrogenase” value [8] was “little to no inhibition” and the MIC range [9] was no more than 0.008 to 0.015 µg/mL. It also gave an MIC50 [9] of no more than 0.008 µg/mL, an MIC90 [9] of 0.015 µg/mL (≈ 0.0301 µM) and an MIC [9] of 0.009 µg/mL (≈ 0.0181 µM). The MIC range [10] was no more than 0.008 to 0.015 µg/mL, the MIC50 [10] was no more than 0.008 µg/mL and the MIC90 [10] was 0.015 µg/mL (≈ 0.0301 µM). For the same molecule, the MIC [10] was 0.009 µg/mL (≈ 0.0181 µM), the Tmax (in vivo; both, Plasma Tmax) was no more than 1 h and the AUC(0-t) (in vivo; female, po, 10 mg/kg) was 11400 ng·h/mL. For the same molecule, the Tmax (in vivo; female, po, 10 mg/kg, Tmax) was 1 h, the AUC(0-t) (in vivo; female, po, 20 mg/kg) was 26600 ng·h/mL and the Cmax (in vivo; female, po, 20 mg/kg) was 4610 ng/mL. It also gave an AUC(0-t) (in vivo; female, po, 30 mg/kg) of 30800 ng·h/mL, a Cmax (in vivo; female, po, 30 mg/kg) of 4110 ng/mL and a Tmax (in vivo; female, po, 30 mg/kg, Tmax) of 1 h. The AUC(0-t) (in vivo; male, po, 10 mg/kg) was 8700 ng·h/mL, the Tmax (in vivo; male, po, 10 mg/kg, Tmax) was 0.5 h and the AUC(0-t) (in vivo; male, po, 20 mg/kg) was 22100 ng·h/mL. It also gave a Cmax (in vivo; male, po, 20 mg/kg) of 3910 ng/mL, a Tmax (in vivo; male, po, 20 mg/kg, Tmax) of 1 h and an AUC(0-t) (in vivo; male, po, 30 mg/kg) of 27700 ng·h/mL. The Cmax (in vivo; male, po, 30 mg/kg) was 4110 ng/mL, the Tmax (in vivo; male, po, 30 mg/kg, Tmax) was 1 h and the half-life (in vivo) was roughly 2 h. For the same molecule, the MIC [3] was 0.015 µg/mL (≈ 0.0301 µM) and the “mice with no fungal colonies in plated whole-brain homogenates” value (C. immitis [4]) was 7 of the 10 and 7 of 10.

For C[C@@H](c1ncncc1F)[C@](O)(Cn1cncn1)c1ccc(F)cc1F [voriconazole, reference compound], the MIC50 [6] was 0.125 µg/mL (≈ 0.358 µM), the MIC90 [6] was 0.25 µg/mL (≈ 0.716 µM) and the MIC [6] was 0.113 µg/mL (≈ 0.323 µM). For the same molecule, the MIC range [9] was no more than 0.03 to 0.25 µg/mL, the MIC50 [9] was 0.06 µg/mL (≈ 0.172 µM) and the MIC90 [9] was 0.125 µg/mL (≈ 0.358 µM). It also gave an MIC [9] of 0.072 µg/mL (≈ 0.206 µM), an MIC range [10] of no more than 0.03 to 0.25 µg/mL and an MIC50 [10] of 0.125 µg/mL (≈ 0.358 µM). The MIC90 [10] was 0.125 µg/mL (≈ 0.358 µM), the MIC [10] was 0.103 µg/mL (≈ 0.295 µM) and the MIC [3] was 0.125 µg/mL (≈ 0.358 µM).
